Assay results from ChEMBL document CHEMBL4507268 (2021).

Assays:
Conditions in all cases: Compound concentration 1000.0 nM
[1] = target: T1, Dual specificity mitogen-activated protein kinase kinase 7 (Homo sapiens) (UniProt O14733)
T1 sequence (whole entry): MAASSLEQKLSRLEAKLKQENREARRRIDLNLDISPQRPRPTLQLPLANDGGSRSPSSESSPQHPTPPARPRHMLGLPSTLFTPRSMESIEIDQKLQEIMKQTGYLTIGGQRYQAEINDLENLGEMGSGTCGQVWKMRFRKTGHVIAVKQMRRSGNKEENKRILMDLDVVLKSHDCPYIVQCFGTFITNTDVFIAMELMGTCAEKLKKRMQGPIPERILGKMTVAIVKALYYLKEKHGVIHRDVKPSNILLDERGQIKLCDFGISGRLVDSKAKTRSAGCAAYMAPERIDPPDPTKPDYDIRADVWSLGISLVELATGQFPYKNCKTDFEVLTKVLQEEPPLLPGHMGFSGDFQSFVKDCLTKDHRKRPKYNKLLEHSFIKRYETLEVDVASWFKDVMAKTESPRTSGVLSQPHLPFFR

[2] = target: Activin receptor type-2A (Homo sapiens) (UniProt P27037)
[3] = target: Homeodomain-interacting protein kinase 2 (Homo sapiens) (UniProt Q9H2X6)
[4] = target: Ribosomal protein S6 kinase alpha-1 (Homo sapiens) (UniProt Q15418)
[5] = target: RAF proto-oncogene serine/threonine-protein kinase (Homo sapiens) (UniProt P04049)
[6] = target: T2, Tyrosine-protein kinase Tec (Homo sapiens) (UniProt P42680)
T2 sequence (whole entry): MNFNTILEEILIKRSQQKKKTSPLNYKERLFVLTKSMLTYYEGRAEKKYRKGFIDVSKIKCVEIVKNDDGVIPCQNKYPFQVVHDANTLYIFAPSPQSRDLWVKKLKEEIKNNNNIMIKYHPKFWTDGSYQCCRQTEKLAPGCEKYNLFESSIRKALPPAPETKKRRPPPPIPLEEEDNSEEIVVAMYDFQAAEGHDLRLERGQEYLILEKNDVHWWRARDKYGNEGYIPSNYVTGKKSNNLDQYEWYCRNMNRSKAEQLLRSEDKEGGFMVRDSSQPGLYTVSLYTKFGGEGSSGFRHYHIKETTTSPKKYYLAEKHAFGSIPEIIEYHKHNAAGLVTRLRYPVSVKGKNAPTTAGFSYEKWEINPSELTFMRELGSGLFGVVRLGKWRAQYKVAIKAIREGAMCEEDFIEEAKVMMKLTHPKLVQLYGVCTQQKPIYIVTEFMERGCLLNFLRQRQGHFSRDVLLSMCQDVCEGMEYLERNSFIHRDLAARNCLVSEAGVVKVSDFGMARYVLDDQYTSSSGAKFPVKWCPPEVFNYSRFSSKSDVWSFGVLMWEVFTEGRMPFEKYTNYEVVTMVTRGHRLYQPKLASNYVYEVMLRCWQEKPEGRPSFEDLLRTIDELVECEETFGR

[7] = target: T3, Mitogen-activated protein kinase kinase kinase 2 (Homo sapiens) (UniProt Q9Y2U5)
T3 sequence (whole entry): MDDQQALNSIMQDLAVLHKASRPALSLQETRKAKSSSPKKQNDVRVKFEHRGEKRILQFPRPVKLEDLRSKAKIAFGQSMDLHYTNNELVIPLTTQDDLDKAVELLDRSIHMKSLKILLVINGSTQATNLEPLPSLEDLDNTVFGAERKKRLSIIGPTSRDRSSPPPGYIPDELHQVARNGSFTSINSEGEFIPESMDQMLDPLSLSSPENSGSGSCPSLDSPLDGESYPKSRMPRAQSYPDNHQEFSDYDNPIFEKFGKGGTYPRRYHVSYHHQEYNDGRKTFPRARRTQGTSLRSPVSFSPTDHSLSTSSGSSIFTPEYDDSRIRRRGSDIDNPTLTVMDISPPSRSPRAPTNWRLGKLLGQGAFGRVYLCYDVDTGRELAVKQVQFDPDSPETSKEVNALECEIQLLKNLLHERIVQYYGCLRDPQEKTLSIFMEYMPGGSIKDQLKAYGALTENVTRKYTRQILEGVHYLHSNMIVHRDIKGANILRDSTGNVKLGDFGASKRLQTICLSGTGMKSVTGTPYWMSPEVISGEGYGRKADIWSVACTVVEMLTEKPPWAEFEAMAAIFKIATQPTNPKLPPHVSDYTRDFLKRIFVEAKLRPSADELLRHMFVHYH

[8] = target: Ribosomal protein S6 kinase alpha-1 (Homo sapiens) (UniProt Q15418); remark: listed apart in the source
[9] = target: Serine/threonine-protein kinase RIO1 (Homo sapiens) (UniProt Q9BRS2)
[10] = target: T4, Receptor-interacting serine/threonine-protein kinase 1 (Homo sapiens) (UniProt Q13546)
T4 sequence (whole entry): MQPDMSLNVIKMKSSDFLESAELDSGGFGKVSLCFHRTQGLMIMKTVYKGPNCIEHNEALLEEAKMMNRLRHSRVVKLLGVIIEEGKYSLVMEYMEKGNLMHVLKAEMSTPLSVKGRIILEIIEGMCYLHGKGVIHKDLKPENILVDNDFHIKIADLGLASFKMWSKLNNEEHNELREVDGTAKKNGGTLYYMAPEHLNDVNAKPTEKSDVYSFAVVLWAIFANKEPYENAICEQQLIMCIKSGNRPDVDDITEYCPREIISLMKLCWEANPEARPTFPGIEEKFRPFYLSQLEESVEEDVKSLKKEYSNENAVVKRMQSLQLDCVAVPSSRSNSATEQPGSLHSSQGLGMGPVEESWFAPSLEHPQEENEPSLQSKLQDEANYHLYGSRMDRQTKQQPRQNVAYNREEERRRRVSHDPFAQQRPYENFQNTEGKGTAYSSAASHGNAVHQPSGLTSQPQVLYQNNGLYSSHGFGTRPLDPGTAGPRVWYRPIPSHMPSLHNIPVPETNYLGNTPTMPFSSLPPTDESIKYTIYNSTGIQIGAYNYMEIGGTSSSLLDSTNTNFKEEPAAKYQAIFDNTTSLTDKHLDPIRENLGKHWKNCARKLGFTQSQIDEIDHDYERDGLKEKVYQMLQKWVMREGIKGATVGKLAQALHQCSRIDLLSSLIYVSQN

[11] = target: Ephrin type-A receptor 2 (Homo sapiens) (UniProt P29317)
[12] = target: Vascular endothelial growth factor receptor 3 (Homo sapiens) (UniProt P35916)
[13] = target: Cyclin-dependent kinase 5 (Homo sapiens) (UniProt Q00535)
[14] = target: Calcium/calmodulin-dependent protein kinase type 1G (Homo sapiens) (UniProt Q96NX5)

Measured: residual activity

Sequence of Ribosomal protein S6 kinase alpha-1 (Homo sapiens) (Q15418 whole entry): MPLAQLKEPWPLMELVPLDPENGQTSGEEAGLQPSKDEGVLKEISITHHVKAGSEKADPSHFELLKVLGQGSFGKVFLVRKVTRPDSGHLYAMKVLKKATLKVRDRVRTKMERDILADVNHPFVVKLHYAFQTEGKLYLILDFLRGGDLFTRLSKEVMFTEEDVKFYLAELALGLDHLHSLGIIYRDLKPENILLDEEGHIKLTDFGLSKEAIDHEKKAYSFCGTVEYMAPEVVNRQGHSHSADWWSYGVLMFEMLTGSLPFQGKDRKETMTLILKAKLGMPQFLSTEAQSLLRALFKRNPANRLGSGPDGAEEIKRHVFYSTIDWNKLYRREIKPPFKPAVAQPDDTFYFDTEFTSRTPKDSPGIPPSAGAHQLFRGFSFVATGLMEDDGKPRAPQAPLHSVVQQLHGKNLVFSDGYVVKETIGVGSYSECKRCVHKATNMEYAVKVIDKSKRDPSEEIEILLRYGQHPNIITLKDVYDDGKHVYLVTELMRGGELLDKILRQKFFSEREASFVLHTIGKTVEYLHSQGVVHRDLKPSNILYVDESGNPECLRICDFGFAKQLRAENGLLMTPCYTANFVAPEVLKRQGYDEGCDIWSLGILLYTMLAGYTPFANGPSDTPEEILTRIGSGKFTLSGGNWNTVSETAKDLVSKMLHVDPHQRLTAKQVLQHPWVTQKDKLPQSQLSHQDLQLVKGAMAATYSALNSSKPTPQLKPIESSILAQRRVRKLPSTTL
Sequence of Calcium/calmodulin-dependent protein kinase type 1G (Homo sapiens) (Q96NX5 whole entry): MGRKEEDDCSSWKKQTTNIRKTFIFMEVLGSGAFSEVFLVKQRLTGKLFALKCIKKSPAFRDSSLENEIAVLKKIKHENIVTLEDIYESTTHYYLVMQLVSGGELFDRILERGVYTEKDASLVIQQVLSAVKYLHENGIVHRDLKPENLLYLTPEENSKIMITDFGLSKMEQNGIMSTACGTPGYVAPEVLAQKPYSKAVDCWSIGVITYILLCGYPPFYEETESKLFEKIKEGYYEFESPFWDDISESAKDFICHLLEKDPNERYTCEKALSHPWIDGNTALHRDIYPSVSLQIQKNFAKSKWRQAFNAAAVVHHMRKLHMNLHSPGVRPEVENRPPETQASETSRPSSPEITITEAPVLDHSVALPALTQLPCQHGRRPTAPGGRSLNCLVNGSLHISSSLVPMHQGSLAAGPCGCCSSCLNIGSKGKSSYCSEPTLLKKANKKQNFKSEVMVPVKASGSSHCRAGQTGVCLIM
Sequence of Ephrin type-A receptor 2 (Homo sapiens) (P29317 whole entry): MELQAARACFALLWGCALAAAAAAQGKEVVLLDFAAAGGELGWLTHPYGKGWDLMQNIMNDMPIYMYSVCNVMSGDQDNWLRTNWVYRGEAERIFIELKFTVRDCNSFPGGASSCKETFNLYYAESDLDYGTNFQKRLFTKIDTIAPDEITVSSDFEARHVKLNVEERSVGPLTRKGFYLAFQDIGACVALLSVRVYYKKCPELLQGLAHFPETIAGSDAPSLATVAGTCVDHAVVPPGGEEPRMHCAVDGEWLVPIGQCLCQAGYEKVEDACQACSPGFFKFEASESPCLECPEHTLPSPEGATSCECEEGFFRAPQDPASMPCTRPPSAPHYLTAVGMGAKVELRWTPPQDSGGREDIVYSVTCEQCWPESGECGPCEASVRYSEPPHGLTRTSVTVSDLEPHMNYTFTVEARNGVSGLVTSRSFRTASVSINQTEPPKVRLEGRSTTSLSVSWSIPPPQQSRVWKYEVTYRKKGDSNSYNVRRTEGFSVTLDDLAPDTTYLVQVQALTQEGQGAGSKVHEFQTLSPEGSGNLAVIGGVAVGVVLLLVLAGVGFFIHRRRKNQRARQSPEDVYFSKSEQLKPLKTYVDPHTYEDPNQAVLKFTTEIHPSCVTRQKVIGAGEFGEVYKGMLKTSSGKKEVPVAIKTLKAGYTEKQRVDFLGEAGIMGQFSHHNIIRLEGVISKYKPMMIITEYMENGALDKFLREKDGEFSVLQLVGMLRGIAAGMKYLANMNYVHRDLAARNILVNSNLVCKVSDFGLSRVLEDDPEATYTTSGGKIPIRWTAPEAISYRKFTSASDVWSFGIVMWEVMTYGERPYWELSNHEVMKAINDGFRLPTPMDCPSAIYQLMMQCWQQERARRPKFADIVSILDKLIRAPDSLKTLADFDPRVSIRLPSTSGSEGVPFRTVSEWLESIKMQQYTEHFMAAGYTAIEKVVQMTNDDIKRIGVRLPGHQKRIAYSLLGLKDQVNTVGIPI
Sequence of Cyclin-dependent kinase 5 (Homo sapiens) (Q00535 whole entry, looked up): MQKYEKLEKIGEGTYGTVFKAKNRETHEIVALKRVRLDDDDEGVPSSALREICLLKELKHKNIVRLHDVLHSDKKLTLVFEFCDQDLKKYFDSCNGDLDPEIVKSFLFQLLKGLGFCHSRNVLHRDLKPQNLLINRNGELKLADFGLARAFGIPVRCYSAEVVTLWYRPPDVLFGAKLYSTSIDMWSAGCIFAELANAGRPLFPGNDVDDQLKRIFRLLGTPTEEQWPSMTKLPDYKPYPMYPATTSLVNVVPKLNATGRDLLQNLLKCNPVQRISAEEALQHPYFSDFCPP
Sequence of RAF proto-oncogene serine/threonine-protein kinase (Homo sapiens) (P04049 whole entry): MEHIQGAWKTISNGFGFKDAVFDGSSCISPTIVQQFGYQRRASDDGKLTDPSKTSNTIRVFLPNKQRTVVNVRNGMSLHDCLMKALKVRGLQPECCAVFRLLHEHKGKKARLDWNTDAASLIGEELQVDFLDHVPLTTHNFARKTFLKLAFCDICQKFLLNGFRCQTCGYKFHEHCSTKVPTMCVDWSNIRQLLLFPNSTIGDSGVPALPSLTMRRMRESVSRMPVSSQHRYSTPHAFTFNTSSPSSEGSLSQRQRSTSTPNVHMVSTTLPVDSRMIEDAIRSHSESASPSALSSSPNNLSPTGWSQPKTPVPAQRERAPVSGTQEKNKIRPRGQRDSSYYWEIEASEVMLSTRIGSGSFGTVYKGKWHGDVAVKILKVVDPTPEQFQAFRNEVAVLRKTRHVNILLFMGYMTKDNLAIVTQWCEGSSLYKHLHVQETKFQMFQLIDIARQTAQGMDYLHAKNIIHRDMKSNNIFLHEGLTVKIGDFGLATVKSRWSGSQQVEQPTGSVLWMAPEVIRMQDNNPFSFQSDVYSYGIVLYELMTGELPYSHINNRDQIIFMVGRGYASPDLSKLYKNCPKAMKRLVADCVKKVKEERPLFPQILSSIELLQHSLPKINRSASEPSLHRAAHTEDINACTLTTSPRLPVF
Sequence of Activin receptor type-2A (Homo sapiens) (P27037 whole entry): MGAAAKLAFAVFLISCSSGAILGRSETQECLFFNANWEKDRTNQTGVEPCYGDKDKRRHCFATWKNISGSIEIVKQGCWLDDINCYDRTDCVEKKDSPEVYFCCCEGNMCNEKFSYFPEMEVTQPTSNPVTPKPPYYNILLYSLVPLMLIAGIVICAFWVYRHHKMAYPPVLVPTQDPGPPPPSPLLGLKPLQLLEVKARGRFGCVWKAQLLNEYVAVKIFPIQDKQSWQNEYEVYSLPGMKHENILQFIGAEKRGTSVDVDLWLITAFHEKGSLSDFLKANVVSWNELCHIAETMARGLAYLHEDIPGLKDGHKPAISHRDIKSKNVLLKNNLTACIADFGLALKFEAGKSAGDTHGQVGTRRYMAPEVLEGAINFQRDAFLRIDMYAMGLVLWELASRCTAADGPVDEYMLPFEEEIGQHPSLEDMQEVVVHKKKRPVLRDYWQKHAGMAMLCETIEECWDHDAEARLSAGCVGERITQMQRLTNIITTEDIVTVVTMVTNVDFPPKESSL
Sequence of Vascular endothelial growth factor receptor 3 (Homo sapiens) (P35916 whole entry): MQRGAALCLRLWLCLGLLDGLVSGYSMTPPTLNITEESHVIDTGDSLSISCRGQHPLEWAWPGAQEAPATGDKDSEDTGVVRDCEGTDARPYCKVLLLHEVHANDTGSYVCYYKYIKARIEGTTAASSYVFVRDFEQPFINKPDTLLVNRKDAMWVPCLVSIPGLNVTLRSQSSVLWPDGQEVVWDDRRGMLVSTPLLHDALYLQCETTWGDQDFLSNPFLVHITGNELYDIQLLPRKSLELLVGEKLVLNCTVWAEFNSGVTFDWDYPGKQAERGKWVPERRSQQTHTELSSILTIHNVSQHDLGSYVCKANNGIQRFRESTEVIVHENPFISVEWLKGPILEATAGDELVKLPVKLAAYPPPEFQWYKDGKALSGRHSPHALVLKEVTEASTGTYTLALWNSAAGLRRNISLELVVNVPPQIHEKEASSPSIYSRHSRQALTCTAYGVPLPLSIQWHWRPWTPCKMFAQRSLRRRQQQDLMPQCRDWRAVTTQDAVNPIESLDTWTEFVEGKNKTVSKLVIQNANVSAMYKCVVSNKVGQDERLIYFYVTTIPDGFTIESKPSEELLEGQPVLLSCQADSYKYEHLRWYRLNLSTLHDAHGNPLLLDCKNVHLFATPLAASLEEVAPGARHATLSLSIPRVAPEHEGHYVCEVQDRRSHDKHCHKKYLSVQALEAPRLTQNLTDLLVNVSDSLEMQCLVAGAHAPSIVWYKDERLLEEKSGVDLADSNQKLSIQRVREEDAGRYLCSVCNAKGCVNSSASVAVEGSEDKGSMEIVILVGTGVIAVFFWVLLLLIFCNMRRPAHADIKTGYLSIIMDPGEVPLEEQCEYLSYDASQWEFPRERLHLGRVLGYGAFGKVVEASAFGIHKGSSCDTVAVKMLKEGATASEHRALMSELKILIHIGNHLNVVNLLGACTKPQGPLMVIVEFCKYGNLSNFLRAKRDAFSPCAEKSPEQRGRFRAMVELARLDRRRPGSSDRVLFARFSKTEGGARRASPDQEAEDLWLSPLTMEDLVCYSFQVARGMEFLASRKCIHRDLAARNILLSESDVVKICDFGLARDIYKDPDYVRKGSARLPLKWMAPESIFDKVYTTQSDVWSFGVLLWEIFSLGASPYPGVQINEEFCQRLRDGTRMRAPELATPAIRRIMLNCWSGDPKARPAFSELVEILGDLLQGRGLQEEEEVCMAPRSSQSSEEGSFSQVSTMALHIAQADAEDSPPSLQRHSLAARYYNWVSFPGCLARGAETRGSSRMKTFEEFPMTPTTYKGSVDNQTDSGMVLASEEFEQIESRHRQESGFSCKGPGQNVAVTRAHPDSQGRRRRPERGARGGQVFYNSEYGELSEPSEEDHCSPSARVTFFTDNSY

Cc1nc(C2CCN(C(=O)c3ccc(OC(F)(F)F)cc3N)CC2)c2ncc(N3CCN(C)CC3)cc2n1 [BAY-693]
inactive: [1] 86% | [2] 100% | [3] 93% | [4] 100% | [5] 77% | [6] 96% | [7] 100% | [8] 93% | [9] 100% | [10] 98% | [11] 100% | [12] 75% | [13] 88% | [14] 100%

CN1CCN(c2cnc3c(C4CCN(C(=O)c5ccc(OC(F)(F)F)cc5N)CC4)ncnc3c2)CC1 [BAY-885]
inactive: [1] 100% | [2] 100% | [3] 100% | [4] 100% | [5] 75% | [6] 100% | [7] 100% | [8] 100% | [9] 100% | [10] 100% | [11] 100% | [12] 100% | [13] 87% | [14] 100%
